Laboratory results as given in patent US9850283B2, “Macrocyclic inhibitors of the PD-1/PD-L1 and CD80(B7-1)/PD-L1 protein/protein interactions” (BRISTOL-MYERS SQUIBB COMPANY, priority 2013, dated 2017).
Where two headings read alike, the source gives them in different places. Starred links: 1 amine or outer side, 2 acyl side, 3 side chain; linkers in the order of their positions; H or OH if unused. Positions of bridges follow the written chain, without caps; N, C: chain ends. Non-standard residues stand in square brackets, D forms with d. Residues, ends and D or L forms follow the SMILES beside them. ξ: configuration not given here. Phe(3,4,5-F3) = N[C@@H](Cc1cc(F)c(F)c(F)c1)C(=O)O; Phe(4-CH2NH2) = NCc1ccc(C[C@H](N)C(=O)O)cc1; Phe(2-Cl) = N[C@@H](Cc1ccccc1Cl)C(=O)O; d(cisHyp) = O=C(O)[C@H]1C[C@@H](O)CN1; Bta = N[C@@H](Cc1csc2ccccc12)C(=O)O; Hyp = O=C(O)[C@@H]1C[C@@H](O)CN1; NMeF = CN[C@@H](Cc1ccccc1)C(=O)O; X4 = O=C([C@H]1COCCN1[*:1])[*:2]; dNMeE = CN[C@H](CCC(=O)O)C(=O)O; dNMeNle = CCCC[C@@H](NC)C(=O)O; NMehSer = CN[C@@H](CCO)C(=O)O; NMeNle = CCCC[C@H](NC)C(=O)O; dPip = O=C(O)[C@H]1CCCCN1; NMeA = CN[C@@H](C)C(=O)O; Orn = NCCC[C@H](N)C(=O)O; dDap = NC[C@@H](N)C(=O)O; Dab = NCC[C@H](N)C(=O)O; Dap = NC[C@H](N)C(=O)O; ξhCys = NC(CCS)C(=O)O; ξP = O=C(O)C1CCCN1; ξC = NC(CS)C(=O)O; Sar = CNCC(=O)O

Tests used:
Human PD-L1/PD-1 = target: T1, Human PD-L1/PD-1 (Homo sapiens, UniProt Q9NZQ7); test: HTRF PD-1-Ig/PD-L1-His binding assay (human PD-L1); conditions: cluster symbol; read-out: HTRF IC50 cluster
T1 construct: made in house; host or cells: HEK293T
T1 sequence (Q9NZQ7 with tags, fused parts or gaps): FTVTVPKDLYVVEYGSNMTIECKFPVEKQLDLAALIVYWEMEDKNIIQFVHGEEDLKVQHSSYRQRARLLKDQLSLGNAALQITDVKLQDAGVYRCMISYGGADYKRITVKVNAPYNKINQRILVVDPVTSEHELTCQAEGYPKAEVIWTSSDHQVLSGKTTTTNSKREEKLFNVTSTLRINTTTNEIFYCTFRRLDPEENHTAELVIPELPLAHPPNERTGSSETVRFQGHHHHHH
Summary of the method: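 The time-resolved fluorescence signal comes from Eu-cryptate anti-Ig (1 nM) and APC anti-His (20 nM) antibodies bound to a PD-1-Ig/PD-L1-His complex. Both partners lack transmembrane regions.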

[1] = target: T2, LK35.2-hPD-L1 cells / PE-labeled PD-1-Ig (Homo sapiens, UniProt Q9NZQ7); test: LK35.2-hPD-L1 cell binding high-content screening assay; format: cell-based; conditions: cluster symbol, read-out: CBA IC50 cluster
T2 construct: expressed in transfected cells; host or cells: LK35.2 mouse B cell line
T2 sequence (Q9NZQ7 19-290): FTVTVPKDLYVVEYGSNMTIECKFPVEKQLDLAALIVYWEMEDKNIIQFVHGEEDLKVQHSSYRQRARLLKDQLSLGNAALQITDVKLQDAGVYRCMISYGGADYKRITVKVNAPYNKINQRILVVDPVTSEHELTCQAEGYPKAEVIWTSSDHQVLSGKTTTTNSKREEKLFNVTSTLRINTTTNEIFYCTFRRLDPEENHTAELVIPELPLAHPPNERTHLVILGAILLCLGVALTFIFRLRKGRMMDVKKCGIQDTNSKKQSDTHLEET
Summary of the method: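 Mouse LK35.2 B cells stably overexpressing human PD-L1 were cultured overnight in RPMI with 10% FCS, then given compound and PE-labeled human PD-1-Ig (1 nM final) for 1 h at 37 °C. After three dPBS washes, bound fluorescence was quantified by high-content imaging.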

[2] = cell binding assay, cell line not given
[3] = cell line of CBA not given (LK35.2-hPD-L1 or 293T-hPD-L1)

SMILES	IC50 (Human PD-L1/PD-1) [nM]	IC50 [1, 2] [nM]	IC50 [1, 3] [nM]
CCCC[C@H]1C(=O)N(C)[C@@H](CCCC)C(=O)N[C@@H](CCCNC(=N)N)C(=O)NC(C(=O)N[C@@H](CO)C(N)=O)CSCC(=O)N[C@@H](Cc2ccc(O)cc2)C(=O)N(C)[C@@H](C)C(=O)N[C@@H](CC(N)=O)C(=O)N2CCC[C@H]2C(=O)N[C@@H](Cc2cnc[nH]2)C(=O)N[C@@H](CO)C(=O)N2C[C@H](O)C[C@H]2C(=O)N[C@@H](Cc2c[nH]c3ccccc23)C(=O)N[C@@H](CO)C(=O)N[C@@H](Cc2csc3ccccc23)C(=O)N1C (stereo partly shown) [Example 9078] ({CH2CO}-Y[NMeA]NPHS[Hyp]WS[Bta][NMeNle][NMeNle]R[ξC]S-NH2; thioether N-14)	6.76 to 30.3	0.158 to 4.71	–
CCCC[C@H]1C(=O)N(C)[C@@H](CCCC)C(=O)N[C@@H](CCCNC(=N)N)C(=O)N[C@H](C(=O)NCC(N)=O)CSCC(=O)N[C@@H](Cc2ccccc2)C(=O)N(C)[C@@H](C)C(=O)N[C@@H](CC(N)=O)C(=O)N2CCC[C@H]2C(=O)N[C@@H](Cc2cnc[nH]2)C(=O)N[C@@H](CC(C)C)C(=O)N[C@@H](CCC(N)=O)C(=O)N[C@@H](Cc2c[nH]c3ccccc23)C(=O)N[C@@H](CO)C(=O)N[C@@H](Cc2c[nH]c3ccccc23)C(=O)N1C [Example 1074] ({CH2CO}-F[NMeA]NPHLQWSW[NMeNle][NMeNle]RCG-NH2; thioether N-14)	> 30.5	–	> 74.3
CCCC[C@H]1C(=O)N(C)[C@@H](CCCC)C(=O)N[C@@H](CCCNC(=N)N)C(=O)N[C@H](C(=O)NCC(N)=O)CSCC(=O)N[C@@H](Cc2ccc(O)cc2)C(=O)N(C)[C@@H](C)C(=O)N[C@@H](CC(N)=O)C(=O)N2CCC[C@H]2C(=O)N[C@@H](Cc2cnc[nH]2)C(=O)N[C@@H](CC(C)C)C(=O)N2C[C@H](O)C[C@H]2C(=O)N[C@@H](Cc2c[nH]c3ccccc23)C(=O)N[C@@H](CN)C(=O)N[C@@H](Cc2c[nH]c3ccccc23)C(=O)N1C [Example 1135] ({CH2CO}-Y[NMeA]NPHL[Hyp]W[Dap]W[NMeNle][NMeNle]RCG-NH2; thioether N-14)	6.76 to 30.3	–	0.158 to 4.71
CCCC[C@H]1C(=O)N(C)[C@@H](CCCC)C(=O)N[C@@H](CCCNC(=N)N)C(=O)N[C@H](C(=O)NCC(N)=O)CSCC(=O)N[C@@H](Cc2ccc(CN)cc2)C(=O)N(C)[C@@H](C)C(=O)N[C@@H](CC(N)=O)C(=O)N2CCC[C@H]2C(=O)N[C@@H](Cc2cnc[nH]2)C(=O)N[C@@H](CC(C)C)C(=O)N2C[C@H](O)C[C@H]2C(=O)N[C@@H](Cc2c[nH]c3ccccc23)C(=O)N[C@@H](CO)C(=O)N[C@@H](Cc2c[nH]c3ccccc23)C(=O)N1C [Example 7053] ({CH2CO}-[Phe(4-CH2NH2)][NMeA]NPHL[Hyp]WSW[NMeNle][NMeNle]RCG-NH2; thioether N-14)	6.76 to 30.3	4.78 to 72.9	–
CCCC[C@H]1C(=O)N(C)CC(=O)N[C@@H](CC(=O)O)C(=O)N[C@@H](C(C)C)C(=O)N(C)[C@@H](Cc2ccccc2)C(=O)N[C@@H](Cc2ccc(O)cc2)C(=O)N(C)CC(=O)N[C@@H](Cc2c[nH]c3ccccc23)C(=O)N[C@@H](Cc2ccc(O)cc2)C(=O)N[C@@H](CC(C)C)C(=O)N[C@H](C(=O)NCC(N)=O)CSCC(=O)N[C@@H](Cc2ccccc2Cl)C(=O)N(C)[C@@H](Cc2ccccc2)C(=O)N1C [Example 3104] ({CH2CO}-[Phe(2-Cl)][NMeF][NMeNle][Sar]DV[NMeF]Y[Sar]WYLCG-NH2; thioether N-13)	> 30.5	–	> 74.3
CCCC[C@H]1C(=O)N[C@@H](CCCNC(=N)N)C(=O)N[C@H](C(=O)NCC(N)=O)CSCC(=O)N[C@@H](Cc2ccc(O)cc2)C(=O)N(C)[C@@H](C)C(=O)N[C@@H](CC(N)=O)C(=O)N2CCC[C@H]2C(=O)N[C@@H](Cc2cnc[nH]2)C(=O)N[C@@H](CC(C)C)C(=O)N2C[C@H](O)C[C@@H]2C(=O)N[C@@H](Cc2c[nH]c3ccccc23)C(=O)N[C@@H](CO)C(=O)N[C@@H](Cc2csc3ccccc23)C(=O)N(C)[C@@H](CCOC)C(=O)N1C [Example 9007] ({CH2CO}-Y[NMeA]NPHL[d(cisHyp)]WS[Bta][NMehSer](Me)[NMeNle]RCG-NH2; thioether N-14)	0.385 to 6.74	0.158 to 4.71	–
CCCC[C@H]1C(=O)N(C)[C@@H](Cc2ccccc2)C(=O)N[C@@H](CCCNC(=N)N)C(=O)N[C@H](C(=O)NCC(N)=O)CSCC(=O)N[C@@H](Cc2ccccc2)C(=O)N(C)[C@@H](C)C(=O)N[C@@H](CC(N)=O)C(=O)N2CCC[C@H]2C(=O)N[C@@H](Cc2cnc[nH]2)C(=O)N[C@@H](CC(C)C)C(=O)N(C)CC(=O)N[C@@H](Cc2c[nH]c3ccccc23)C(=O)N[C@@H](CO)C(=O)N[C@@H](Cc2c[nH]c3ccccc23)C(=O)N1C [Example 1003] (HELM PEPTIDE1{[O=C(C[*:3])[*:2]].F.[meA].N.P.H.L.[Sar].W.S.W.[CCCC[C@@H](C(=O)[*:2])N(C)[*:1]].[meF].R.C.G.[am]}$PEPTIDE1,PEPTIDE1,1:R3-15:R3$$$V2.0)	> 30.5	–	> 74.3
CCCC[C@H]1C(=O)N(C)[C@@H](CCCC)C(=O)N[C@@H](CCCNC(=N)N)C(=O)NC(C(=O)NCC(N)=O)CCSCC(=O)N[C@@H](Cc2ccc(O)cc2)C(=O)N(C)[C@@H](C)C(=O)N[C@@H](CC(N)=O)C(=O)N2CCC[C@H]2C(=O)N[C@@H](Cc2cnc[nH]2)C(=O)N[C@@H](CC(C)C)C(=O)N2CCC[C@H]2C(=O)N[C@@H](Cc2c[nH]c3ccccc23)C(=O)N[C@@H](CO)C(=O)N[C@@H](Cc2c[nH]c3ccccc23)C(=O)N1C (stereo partly shown) [Example 9019] ({CH2CO}-Y[NMeA]NPHLPWSW[NMeNle][NMeNle]R[ξhCys]G-NH2; thioether N-14)	6.76 to 30.3	> 74.3	–
CCCC[C@@H]1C(=O)N(C)[C@H](CCCC)C(=O)N[C@@H](CN)C(=O)N[C@@H](C(=O)NCC(N)=O)CSCC(=O)N[C@@H](Cc2ccc(O)cc2)C(=O)N2CCCC2C(=O)N[C@H](CC(=O)O)C(=O)N2CCC[C@H]2C(=O)N[C@H](CN)C(=O)N[C@@H](CC(=O)O)C(=O)N2CCCC2C(=O)N[C@H](Cc2c[nH]c3ccccc23)C(=O)N[C@@H](CCN)C(=O)N[C@@H](Cc2c[nH]c3ccccc23)C(=O)N1C (stereo partly shown) [Example 1212] ({CH2CO}-Y[ξP][dD]P[dDap]D[ξP][dW][Dab]W[dNMeNle][dNMeNle][Dap][dC]G-NH2; thioether N-14)	> 30.5	–	> 74.3
CCCC[C@H]1C(=O)N(C)[C@@H](CCCC)C(=O)N[C@@H](CCCNC(=N)N)C(=O)NC(C(=O)NCC(N)=O)CSCC(=O)N[C@@H](Cc2ccc(O)cc2)C(=O)N(C)[C@@H](C)C(=O)N[C@@H](CC(N)=O)C(=O)N2CCC[C@H]2C(=O)N[C@@H](CO)C(=O)N[C@@H](CC(C)C)C(=O)N2C[C@H](O)C[C@H]2C(=O)N[C@@H](Cc2c[nH]c3ccccc23)C(=O)N[C@@H](CO)C(=O)N[C@@H](Cc2c[nH]c3ccccc23)C(=O)N1C (stereo partly shown) [Example 9074] ({CH2CO}-Y[NMeA]NPSL[Hyp]WSW[NMeNle][NMeNle]R[ξC]G-NH2; thioether N-14)	0.385 to 6.74	0.158 to 4.71	–
CCCC[C@H]1C(=O)N(C)CC(=O)N[C@@H](CC(=O)O)C(=O)N[C@@H](C(C)C)C(=O)N(C)[C@@H](Cc2ccccc2)C(=O)N[C@@H](Cc2ccc(O)cc2)C(=O)N(C)CC(=O)N[C@@H](Cc2c[nH]c3ccccc23)C(=O)N[C@@H](Cc2ccc(O)cc2)C(=O)N[C@@H](CC(C)C)C(=O)N[C@H](C(=O)NCC(N)=O)CC=CC(=O)N[C@@H](Cc2ccccc2)C(=O)N(C)[C@@H](Cc2ccccc2)C(=O)N1C [Example 3160]	> 30.5	–	> 74.3
CCCC[C@H]1C(=O)N(C)[C@H](CCC(=O)O)C(=O)N[C@@H](CC(N)=O)C(=O)N[C@@H](C(C)C)C(=O)N(C)[C@@H](Cc2ccccc2)C(=O)N[C@@H](Cc2ccc(O)cc2)C(=O)N2CCCC[C@@H]2C(=O)N[C@@H](Cc2c[nH]c3ccccc23)C(=O)N[C@@H](Cc2ccc(O)cc2)C(=O)N[C@@H](CCCCN)C(=O)N[C@H](C(=O)NCC(N)=O)CSCC(=O)N[C@@H](Cc2ccccc2)C(=O)N(C)[C@@H](Cc2ccccc2)C(=O)N1C [Example 3593] ({CH2CO}-F[NMeF][NMeNle][dNMeE]NV[NMeF]Y[dPip]WYKCG-NH2; thioether N-13)	0.385 to 6.74	0.158 to 4.71	–
CCCC[C@H]1C(=O)N(C)[C@@H](CCCC)C(=O)N[C@@H](CCCNC(=N)N)C(=O)N[C@H](C(=O)NCC(N)=O)CSCC(=O)N[C@@H](Cc2ccc(O)cc2)C(=O)N(C)[C@@H](C)C(=O)N[C@@H](CN)C(=O)N2CCC[C@H]2C(=O)N[C@@H](Cc2c[nH]cn2)C(=O)N[C@@H](CCC(=O)O)C(=O)N2C[C@H](O)C[C@H]2C(=O)N[C@@H](Cc2c[nH]c3ccccc23)C(=O)N[C@@H](CO)C(=O)N[C@@H](Cc2c[nH]c3ccccc23)C(=O)N1C [Example 5123] ({CH2CO}-Y[NMeA][Dap]PHE[Hyp]WSW[NMeNle][NMeNle]RCG-NH2; thioether N-14)	6.76 to 30.3	4.78 to 72.9	–
CCCC[C@H]1C(=O)N2C[C@H](O)C[C@@H]2C(=O)N[C@@H](CC(=O)O)C(=O)N[C@@H](C(C)C)C(=O)N(C)[C@@H](Cc2ccccc2)C(=O)N[C@@H](CCC(=O)O)C(=O)N2CCOC[C@@H]2C(=O)N[C@@H](Cc2c[nH]c3ccccc23)C(=O)N[C@@H](Cc2ccc(O)cc2)C(=O)N[C@@H](CCCN)C(=O)N[C@H](C(=O)NCC(N)=O)CSCC(=O)N[C@@H](Cc2cc(F)c(F)c(F)c2)C(=O)N(C)[C@@H](Cc2ccccc2)C(=O)N1C [Example 3599] ({CH2CO}-[Phe(3,4,5-F3)][NMeF][NMeNle][d(cisHyp)]DV[NMeF]E[X4]WY[Orn]CG-NH2; thioether N-13)	0.385 to 6.74	0.158 to 4.71	–
